Assay results: paper PMC5516028, “Molecular tools for GABAA receptors: High affinity ligands for β1-containing subtypes” (Scientific Reports, 2017)
Like-named read-outs stand apart in the source and are kept apart here.

What was measured:
α1β1R41N GABAA receptors = target: T1, α1β1R41N GABAA receptors (Rattus norvegicus, UniProt P15431+P62813, R66N); assay: Two electrode voltage clamp in Xenopus laevis oocytes, mutant α1β1R41N; format: cell-based; settings: for current as % of control at 0.1 µM: 100nM; for current as % of control at 0.1 µM / current as % of control at 0.3 µM / current as % of control at 1 µM / current as % of control at 3 µM / current as % of control at 10 µM / current as % of control at 30 µM: read-out: % of control current at EC3-5; for current as % of control at 0.3 µM: 300nM
T1 construct: expressed in transfected cells; host or cells: Xenopus laevis oocytes, mRNA injected
From the text: (§1) cDNA’s of rat GABAA receptor subunits α1, α4, β1, β2, β3 and γ2S were cloned as described. cDNAs of the rat subunits α2, α3 and α5 were gifts from P. Malherbe, that of α6 and γ1 were gifts of P. Seeburg and that of δ was a gift of C. Czajkowski. The mutants were constructed using the Q5 Site-Directed Mutagenesis Kit (New England Biolabs) following manufacturer’s instruction. We used the wild-type rat β3-pCI vector as template and the primers […] and […] resulting in a substitution of amino acid N41 (AAC) to R (AGG). We used the wild-type rat β1-pCI vector as template and the primers […] and […] resulting in a substitution of amino acid R41 (CGG) to N (AAC). The mutated subunits were confirmed by sequencing.
(§2) In vitro transcription of mRNA was based on the cDNA expression vectors encoding for rat GABAA receptor subunits α1–6, β1-3, γ1,2, δ and the two β mutants (β1R41N and β3N41R)[40]. After linearizing the cDNA vectors with appropriate restriction endonucleases, the cDNA was purified and concentrated with the DNA Clean and Contentrator ^TM Kit (Zymoresearch, Catalog No. D4005). Capped transcripts of the purified cDNA were produced using the mMESSAGE mMACHINE® T7 transcription kit (Ambion, TX, USA) and polyadenylated using the Ambion PolyA tailing kit (Ambion). After transcription and polyadenylation the RNA was purified with the MEGAclear ^TM Kit (Ambion, Catalog No. AM1908). The final RNA concentration was measured on NanoDrop® ND-1000 and finally diluted and stored in diethylpyrocarbonate-treated water at −80 °C. For the microinjection, the RNA of αβ receptor combinations was mixed at 1:1 ratio (which leads to αβ receptors that consist of predominantly 3 beta and 2 alpha subunits[27]), for αkβlγm (k = 1–3, l = 1, 3, m = 1, 2) receptors at 1:1:5 ratio, for αkβ3γ2 (k = 4–6) and αkβlδ (k = 1, 4 and 6, l = 1, 3) receptor combinations at 3:1:5 ratio.
(§3) Mature female Xenopus laevis (Nasco, WI) were anesthetized in a bath of ice-cold 0.17% Tricain (Ethyl-m-aminobenzoate, Sigma, MO) before decapitation in full accordance with all rules of the Austrian animal protection law (see http://www.ris.bka.gv.at/Dokumente/BgblAuth/BGBLA_2012_I_114/BGBLA_2012_I_114.pdf) and the Austrian animal experiment by-laws (see https://www.ris.bka.gv.at/Dokumente/BgblAuth/BGBLA_2012_II_522/BGBLA_2012_II_522.pdf) which implement the European Directive 2010/63/EU (see http://eur-lex.europa.eu/LexUriServ/LexUriServ.do?uri=OJ:L:2010:276:0033:0079:en:PDF) into the Austrian law (all information accessed on July 27, 2016). The frog’s ovaries were transferred to ND96 medium (96 mM NaCl, 2 mM KCl, 1 mM MgCl2, 5 mM HEPES; pH 7.5). Stage 5–6 oocytes with the follicle cell layer around them were roughly dissected with forceps into packages of 10–15 cells and washed in Ca^2+-free ND96 medium. Cells were then digested with collagenase (type IA, Sigma, NO, 1 mg/mL ND96) at 18 °C shaking at 30 rpm for 30–60 minutes and gently defolliculated with the aid of a glass pipette with appropriate tip diameter and a platinum loop. Defolliculated cells were stored at 18 °C for at least 6 hours in ND96 solution containing penicillin G (10000 IU/100 mL) and streptomycin (10 mg/100 mL) in order to preselect and exclude damaged cells from further treatment. Healthy defolliculated oocytes were injected with an aqueous solution of mRNA. A total of 4.5 ng of mRNA per oocyte was injected with a Nanoject II (Drummond). After injection of mRNA, oocytes were incubated at 18 °C (ND96 + antibiotic) for 2–3 days for αβ receptors and for 3–4 days for αβγ or αβδ receptors before recording. When cells were measured at later time points, oocytes were stored at +4 °C instead of 18 °C.
(§4) For electrophysiological recordings, oocytes were placed on a nylon-grid in a bath of Ca^2+-containing NDE solution medium [96 mM NaCl, 5 mM HEPES-NaOH (pH 7.5), 2 mM KCl, 1 mM MgCl2, 1.8 mM CaCl2].

α1β3 GABAA receptors = target: T2, α1β3 GABAA receptors (Rattus norvegicus, UniProt P62813+P63079); assay: Two electrode voltage clamp in Xenopus laevis oocytes, α1β3; format: cell-based
T2 construct: expressed in transfected cells; host or cells: Xenopus laevis oocytes, mRNA injected
From the text: as §1, §2, §3, §4

α1β2 GABAA receptors = target: T3, α1β2 GABAA receptors (Rattus norvegicus, UniProt P62813+P63138); assay: Two electrode voltage clamp in Xenopus laevis oocytes, α1β2; format: cell-based; settings: for activity at 0.003 µM: 3 nM
T3 construct: expressed in transfected cells; host or cells: Xenopus laevis oocytes, mRNA injected
From the text: as §1, §2, §3, §4

α1β1 GABAA receptors = target: T4, α1β1 GABAA receptors (Rattus norvegicus, UniProt P15431+P62813); assay: Two electrode voltage clamp in Xenopus laevis oocytes, α1β1; format: cell-based; settings: for EC50: read-out: EC50
T4 construct: expressed in transfected cells; host or cells: Xenopus laevis oocytes, mRNA injected
From the text: as §1, §2, §3, §4

α1β3N41R GABAA receptors = target: T5, α1β3N41R GABAA receptors (Rattus norvegicus, UniProt P62813+P63079, N66R); assay: Two electrode voltage clamp in Xenopus laevis oocytes, mutant α1β3N41R; format: cell-based; settings: co-applied with GABA EC3-5, read-out: EC50 values for the mutated receptors
T5 construct: expressed in transfected cells; host or cells: Xenopus laevis oocytes, mRNA injected
From the text: as §1, §2, §3, §4

[1] = target: benzodiazepine binding site, rat cerebellum membranes; assay: [3H]flunitrazepam saturation binding, rat cerebellar membranes; settings: n = 3, read-out: equilibrium binding constant KD
Procedure: In brief, membrane pellets were incubated for 90 min at 4 °C in a total of 500 µL of a solution containing 50 mM Tris/citrate buffer, pH = 7.1, 150 mM NaCl and 2 nM [^3H]flunitrazepam in the absence or presence of either 5 µM diazepam (to determine unspecific binding) or various concentrations of receptor ligands (dissolved in DMSO, final DMSO-concentration 0.5%). Membranes were filtered through Whatman GF/B filters and washed twice with 4 mL of ice-cold 50 mM Tris/citrate buffer. Filters were transferred to scintillation vials and subjected to scintillation counting after the addition of 3 mL Rotiszint Eco plus liquid scintillation cocktail. Nonlinear regression analysis of the displacement curves used the equation: log(inhibitor) vs. response - variable slope with Top = 100% and Bottom = 0% Y = 100/(1 + 10^((logIC50-x)*Hillslope)).

[2] = α1β3, co-applied with GABA EC3-5, read-out: EC50
[3] = read-out: efficacy, % of control current (GABA EC3-5 = 100%), α1β2
[4] = read-out: efficacy, % of control current (GABA EC3-5 = 100%), α1β1
[5] = α1β1, co-applied with GABA EC3-5

T1 sequence (P62813 28-455): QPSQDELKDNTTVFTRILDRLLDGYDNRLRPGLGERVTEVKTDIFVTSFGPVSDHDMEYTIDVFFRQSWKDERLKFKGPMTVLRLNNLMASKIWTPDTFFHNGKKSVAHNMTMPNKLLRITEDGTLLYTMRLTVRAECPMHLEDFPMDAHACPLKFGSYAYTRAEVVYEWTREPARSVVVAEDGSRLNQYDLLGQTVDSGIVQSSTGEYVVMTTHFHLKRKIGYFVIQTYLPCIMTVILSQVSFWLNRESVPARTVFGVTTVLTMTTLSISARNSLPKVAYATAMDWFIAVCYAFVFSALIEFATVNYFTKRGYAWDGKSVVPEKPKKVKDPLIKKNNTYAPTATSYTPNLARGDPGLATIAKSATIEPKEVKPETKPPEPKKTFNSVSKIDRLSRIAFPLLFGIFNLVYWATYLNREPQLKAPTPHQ
T1 sequence (P15431 26-474 R66N): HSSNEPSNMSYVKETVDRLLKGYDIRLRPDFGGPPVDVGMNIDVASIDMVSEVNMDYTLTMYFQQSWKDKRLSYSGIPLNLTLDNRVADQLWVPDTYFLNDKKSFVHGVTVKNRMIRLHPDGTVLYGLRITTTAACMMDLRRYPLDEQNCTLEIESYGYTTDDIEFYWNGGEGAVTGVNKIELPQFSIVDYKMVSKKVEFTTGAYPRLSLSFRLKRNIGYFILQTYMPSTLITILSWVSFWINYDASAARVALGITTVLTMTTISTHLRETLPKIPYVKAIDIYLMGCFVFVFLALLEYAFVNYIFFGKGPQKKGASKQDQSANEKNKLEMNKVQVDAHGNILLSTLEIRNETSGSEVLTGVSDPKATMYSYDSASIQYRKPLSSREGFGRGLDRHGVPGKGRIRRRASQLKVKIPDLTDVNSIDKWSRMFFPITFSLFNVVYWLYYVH
T4 sequence (P62813 28-455): as the sequence (P62813 28-455) above
T4 sequence (P15431 26-474): as the sequence (P15431 26-474 R66N) above, with N41R counted along it
T2 sequence (P62813 28-455): as the sequence (P62813 28-455) above
T2 sequence (P63079 26-473): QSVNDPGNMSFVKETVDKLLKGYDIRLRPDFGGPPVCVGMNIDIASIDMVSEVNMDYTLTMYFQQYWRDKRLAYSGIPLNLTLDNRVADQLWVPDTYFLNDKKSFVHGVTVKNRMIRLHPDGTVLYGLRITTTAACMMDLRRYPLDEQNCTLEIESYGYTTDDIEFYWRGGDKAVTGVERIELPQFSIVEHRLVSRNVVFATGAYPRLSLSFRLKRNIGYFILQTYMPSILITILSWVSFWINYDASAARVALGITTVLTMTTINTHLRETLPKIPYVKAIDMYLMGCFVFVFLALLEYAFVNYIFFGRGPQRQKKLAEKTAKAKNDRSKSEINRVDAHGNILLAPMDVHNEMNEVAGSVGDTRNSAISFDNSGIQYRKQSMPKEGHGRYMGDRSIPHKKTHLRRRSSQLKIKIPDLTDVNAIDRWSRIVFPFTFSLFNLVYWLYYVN
T3 sequence (P62813 28-455): as the sequence (P62813 28-455) above
T3 sequence (P63138 25-474 limits assumed): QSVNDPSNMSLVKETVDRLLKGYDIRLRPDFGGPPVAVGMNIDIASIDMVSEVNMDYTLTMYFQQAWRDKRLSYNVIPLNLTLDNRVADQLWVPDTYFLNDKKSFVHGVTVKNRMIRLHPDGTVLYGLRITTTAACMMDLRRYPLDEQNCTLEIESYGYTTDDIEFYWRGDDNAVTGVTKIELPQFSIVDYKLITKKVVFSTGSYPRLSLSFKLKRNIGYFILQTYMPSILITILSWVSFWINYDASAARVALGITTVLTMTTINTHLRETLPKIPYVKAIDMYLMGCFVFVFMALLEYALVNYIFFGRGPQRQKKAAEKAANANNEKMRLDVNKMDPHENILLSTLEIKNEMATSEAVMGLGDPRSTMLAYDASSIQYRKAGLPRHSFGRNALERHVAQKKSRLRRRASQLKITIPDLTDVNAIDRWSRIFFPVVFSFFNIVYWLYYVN
T5 sequence (P62813 28-455): as the sequence (P62813 28-455) above
T5 sequence (P63079 26-473 N66R): as the sequence (P63079 26-473) above, with N41R counted along it

SMILES	current as % of control at 0.1 µM (α1β1R41N GABAA receptors) [%]	current as % of control at 0.3 µM (α1β1R41N GABAA receptors) [%]	current as % of control at 1 µM (α1β1R41N GABAA receptors) [%]	current as % of control at 3 µM (α1β1R41N GABAA receptors) [%]	current as % of control at 10 µM (α1β1R41N GABAA receptors) [%]	current as % of control at 30 µM (α1β1R41N GABAA receptors) [%]	EC50 (α1β3 GABAA receptors; [2]) [µM]	EC50 (α1β2 GABAA receptors) [µM]	activity at 0.003 µM (α1β2 GABAA receptors; [3]) [%]	Hill slope (nH) (α1β2 GABAA receptors; α1β2)	activity at 30 µM (α1β1 GABAA receptors; [4]) [%]	Hill slope (nH) (α1β1 GABAA receptors; α1β1)	EC50 (α1β1 GABAA receptors; [5]) [µM]	EC50 (α1β3N41R GABAA receptors) [µM]	further results
COc1ccc(-n2nc3c4cc(OC)ccc4[nH]cc-3c2=O)cc1 [Compound 4, 8-Methoxy-2-(4-methoxyphenyl)-2,5-dihydro-3H-pyrazolo[4,3-c]quinolin-3-one]	80 ± 10	85 ± 12	110 ± 20	150 ± 25	180 ± 45	140 ± 15	3.13	2.62	100	1.3±0.5	218 ± 11	1.8±0.4	0.21	1.2	EC50 (α1β1R41N GABAA receptors; co-applied with GABA EC3-5): 1.2 µM; activity at 0.3 µM (α1β3 GABAA receptors; read-out: efficacy, % of control current (GABA EC3-5 = 100%), α1β3, 300 nM): 149 ± 15.8%; activity at 1 µM (α1β3 GABAA receptors; read-out: efficacy, % of control current (GABA EC3-5 = 100%), α1β3, 1 µM): 242 ± 16%; activity at 3 µM (α1β3 GABAA receptors; read-out: efficacy, % of control current (GABA EC3-5 = 100%), α1β3, 3 µM): 654 ± 109%; Hill slope (nH) (α1β3 GABAA receptors; α1β3): 1.9±0.5; EC50 (α1β3 GABAA receptors; α1β3, log of EC50, sign as printed, read-out: LogEC50 (converted)): 3.09 µM; activity at 0.03 µM (α1β2 GABAA receptors; read-out: efficacy, % of control current (GABA EC3-5 = 100%), α1β2, 30 nM): 100%; activity at 0.3 µM (α1β2 GABAA receptors; read-out: efficacy, % of control current (GABA EC3-5 = 100%), α1β2, 300 nM): 166 ± 7.9%; activity at 3 µM (α1β2 GABAA receptors; read-out: efficacy, % of control current (GABA EC3-5 = 100%), α1β2, 3 µM): 689 ± 82.9%; activity at 0.001 µM (α1β1 GABAA receptors; read-out: efficacy, % of control current (GABA EC3-5 = 100%), α1β1, 1 nM): 100%; activity at 0.003 µM (α1β1 GABAA receptors; read-out: efficacy, % of control current (GABA EC3-5 = 100%), α1β1, 3 nM): 100%; activity at 0.03 µM (α1β1 GABAA receptors; read-out: efficacy, % of control current (GABA EC3-5 = 100%), α1β1, 30 nM): 127 ± 1%; activity at 0.3 µM (α1β1 GABAA receptors; read-out: efficacy, % of control current (GABA EC3-5 = 100%), α1β1, 300 nM): 397 ± 54.9%; EC50 (α1β1 GABAA receptors; α1β1 (α1+/β1− interface)): ~0.2 µM
CN1C(=O)CN=C(c2ccccc2F)c2cc([N+](=O)[O-])ccc21 [[^3H]flunitrazepam]	–	–	–	–	–	–	–	–	–	–	–	–	–	–	Kd [1]: 0.0048 ± 0.0003 µM
COc1ccc2[nH]cc3c(=O)n(-c4ccc(C)cc4)nc-3c2c1 [Compound 5, 8-Methoxy-2-(4-methylphenyl)-2,5-dihydro-3H-pyrazolo[4,3-c]quinolin-3-one]	95 ± 20	85 ± 25	100 ± 30	120 ± 30	155 ± 40	160 ± 40	3.49	3.74	100	2.8±1.7	637 ± 114	1.0± 0.5	0.71	2.47	activity at 0.01 µM (α1β3 GABAA receptors; read-out: efficacy, % of control current (GABA EC3-5 = 100%), α1β3, 10 nM): 111 ± 5.7%; activity at 0.03 µM (α1β3 GABAA receptors; read-out: efficacy, % of control current (GABA EC3-5 = 100%), α1β3, 30 nM): 115 ± 8.1%; activity at 0.1 µM (α1β3 GABAA receptors; read-out: efficacy, % of control current (GABA EC3-5 = 100%), α1β3, 100 nM): 126 ± 11.5%; activity at 30 µM (α1β3 GABAA receptors; read-out: efficacy, % of control current (GABA EC3-5 = 100%), α1β3, 30 µM): 623 ± 114%; activity at 1 µM (α1β2 GABAA receptors; read-out: efficacy, % of control current (GABA EC3-5 = 100%), α1β2, 1 µM): 179 ± 8.3%; activity at 30 µM (α1β2 GABAA receptors; read-out: efficacy, % of control current (GABA EC3-5 = 100%), α1β2, 30 µM): 651 ± 148%; activity at 0.01 µM (α1β1 GABAA receptors; read-out: efficacy, % of control current (GABA EC3-5 = 100%), α1β1, 10 nM): 123%; activity at 10 µM (α1β1 GABAA receptors; read-out: efficacy, % of control current (GABA EC3-5 = 100%), α1β1, 10 µM): 732 ± 141%
